Source: patent US8536202B2, “Triazole-substituted anthranilamides as pesticides” (Bayer Cropscience AG, priority 2010, dated 2013)
Read-outs that look alike come from different tables or passages of the source.

Key:
[1] = tested on: caterpillars of the armyworm (Spodoptera frugiperda); assay: Spodoptera frugiperda test (SPODFR spray treatment); type: in vivo; details: 168 h, 100 g/ha, after 7 days, read-out: activity in %
Description: Solvents: 78.0 parts by weight of acetone • • 1.5 parts by weight of dimethylformamide
Emulsifier: 0.5 part by weight of alkylaryl polyglycol ether
An appropriate preparation of active compound is prepared by mixing 1 part by weight of active compound with the stated amounts of solvent and emulsifier and diluting the concentrate with emulsifier-containing water to the desired concentration.
Leaf discs of maize (Zea mays) are sprayed with a preparation of active compound at the desired concentration and, after drying, are populated with caterpillars of the armyworm (Spodoptera frugiperda).
After 7 days, the activity in % is ascertained. Here, 100% means that all of the caterpillars have been killed; 0% means that no caterpillar has been killed.

[2] = log P determination by HPLC on reversed-phase columns (EEC Directive 79/831 Annex V.A8); type: physicochemical; details: pH 2.7
Description: Determination by LC-MS in the acidic range takes place at a pH of 2.7 using 0.1% aqueous formic acid and acetonitrile (containing 0.1% formic acid) as eluents, with a linear gradient from 10% acetonitrile to 95% acetonitrile.
Calibration was carried out using unbranched alkan-2-ones (having 3 to 16 carbon atoms) with known log P values (the log P values are determined from the retention times by linear interpolation between two successive alkanones).

chromatographic logP ([2]; reversed-phase C18 HPLC column, HPLC on reversed-phase columns (C 18), EEC Directive 79/831 Annex V.A8, read-out: logP) | Compound | pest or weed control at 100 g/ha [1] [%] | chromatographic logP [2] | chromatographic logP ([2]; HPLC on reversed-phase columns (C 18), EEC Directive 79/831 Annex V.A8, read-out: logP)
3.04 | Cc1cc(C#N)cc(C(=O)NC(C)(C)C)c1NC(=O)c1cc(Cn2ncc(C(F)(F)F)n2)nn1-c1ncccc1Br [Example 10] | 100 |  | 
 | CNC(=O)c1cc(Cl)cc(C)c1NC(=O)c1cc(Cn2cc(C3CC3)nn2)nn1-c1ncccc1Cl [Example 13] |  | 2.14 | 
 | CNC(=O)c1cc(Cl)cc(C)c1NC(=O)c1cc(Cn2cc(C(C)(C)C)nn2)nn1-c1ncccc1Cl [Example 15] |  | 2.53 | 
 | CNC(=O)c1cc(Cl)cc(C)c1NC(=O)c1cc(Cn2ncc(C(C)C)n2)nn1-c1ncccc1Cl [Example 22] | 100 | 2.85 | 
 | CNC(=O)c1cc(Cl)cc(C)c1NC(=O)c1cc(Cn2ncc(C(C)(C)C)n2)nn1-c1ncccc1Cl [Example 23] | 83 | 3.2 | 
 | CNC(=O)c1cc(C#N)cc(C)c1NC(=O)c1cc(Cn2cc(-c3ccc(F)cc3)nn2)nn1-c1ncccc1Cl [Example 32] | 100 | 2.41 | 
 | CNC(=O)c1cc(C#N)cc(C)c1NC(=O)c1cc(Cn2cc(-c3ccccc3Cl)nn2)nn1-c1ncccc1Cl [Example 35] | 100 | 2.63 | 
 | Cc1cc(Cl)cc(C(=O)NC(C)(C)C)c1NC(=O)c1cc(Cn2ncc(C(C)C)n2)nn1-c1ncccc1Cl [Example 47] |  | 3.86 | 
 | Cc1cc(Cl)cc(C(=O)NC(C)(C)C)c1NC(=O)c1cc(Cn2ncc(C(C)(C)C)n2)nn1-c1ncccc1Cl [Example 48] |  | 4.25 | 
 | Cc1cc(Cl)cc(C(=O)NC(C)(C)C)c1NC(=O)c1cc(Cn2ncc(-c3ccc(Cl)cc3)n2)nn1-c1ncccc1Cl [Example 49] |  | 4.58 | 
 | Cc1cc(C#N)cc(C(=O)NC(C)(C)C)c1NC(=O)c1cc(Cn2cc(C(C)C)nn2)nn1-c1ncccc1Cl [Example 51] |  | 2.74 | 
 | Cc1cc(C#N)cc(C(=O)NC(C)(C)C)c1NC(=O)c1cc(Cn2cc(C(C)(C)C)nn2)nn1-c1ncccc1Cl [Example 52] |  | 3.02 | 
 | Cc1cc(C#N)cc(C(=O)NC(C)(C)C)c1NC(=O)c1cc(Cn2cc(-c3ccccc3Cl)nn2)nn1-c1ncccc1Cl [Example 56] | 83 | 3.45 | 
 | Cc1cc(C#N)cc(C(=O)NC(C)(C)C)c1NC(=O)c1cc(Cn2ncc(C3CC3)n2)nn1-c1ncccc1Cl [Example 58] | 100 | 3.12 | 
 | Cc1cc(C#N)cc(C(=O)NC(C)(C)C)c1NC(=O)c1cc(Cn2ncc(C(C)C)n2)nn1-c1ncccc1Cl [Example 59] |  | 3.38 | 
 | Cc1cc(C#N)cc(C(=O)NC(C)(C)C)c1NC(=O)c1cc(Cn2ncc(C(C)(C)C)n2)nn1-c1ncccc1Cl [Example 60] |  | 3.74 | 
 | CNC(=O)c1cc(Cl)cc(C)c1NC(=O)c1cc(Cn2nnc3ccccc32)nn1-c1ncccc1Cl [Example 66] | 100 | 2.38 | 
 | CNC(=O)c1cc(Cl)cc(C)c1NC(=O)c1cc(Cn2nc3ccccc3n2)nn1-c1ncccc1Cl [Example 67] | 100 | 2.75 | 
 | CNC(=O)c1cc(Cl)cc(C)c1NC(=O)c1cc(Cn2nnc3cc(Cl)ccc32)nn1-c1ncccc1Cl [Example 68] | 100 | 2.9 | 
 | CNC(=O)c1cc(Cl)cc(C)c1NC(=O)c1cc(Cn2nnc3cc(C)ccc32)nn1-c1ncccc1Cl [Example 69] | 100 | 2.63 | 
 | CNC(=O)c1cc(Cl)cc(C)c1NC(=O)c1cc(Cn2nc3ccc(C)cc3n2)nn1-c1ncccc1Cl [Example 73] |  | 3.05 | 

chromatographic logP ([2]; reversed-phase C18 HPLC column, HPLC on reversed-phase columns (C 18), EEC Directive 79/831 Annex V.A8, read-out: logP) | Compound | pest or weed control at 100 g/ha [1] [%] | chromatographic logP [2] | chromatographic logP ([2]; HPLC on reversed-phase columns (C 18), EEC Directive 79/831 Annex V.A8, read-out: logP)
 | CNC(=O)c1cc(Cl)cc(C)c1NC(=O)c1cc(Cn2nnc3cc(Cl)c(Cl)cc32)nn1-c1ncccc1Cl [Example 76] |  | 3.33 | 
 | CNC(=O)c1cc(Cl)cc(C)c1NC(=O)c1cc(Cn2nnc3ccc(F)cc32)nn1-c1ncccc1Cl [Example 78] | 100 | 2.57 | 
 | CNC(=O)c1cc(C#N)cc(C)c1NC(=O)c1cc(Cn2nnc3cc(Cl)c(Cl)cc32)nn1-c1ncccc1Cl [Example 80] | 100 | 2.96 | 
 | CNC(=O)c1cc(C#N)cc(C)c1NC(=O)c1cc(Cn2nnc3ccc(F)cc32)nn1-c1ncccc1Cl [Example 82] | 100 | 2.24 | 
 | CNC(=O)c1cc(C#N)cc(C)c1NC(=O)c1cc(Cn2nc3ccc(F)cc3n2)nn1-c1ncccc1Cl [Example 83] | 100 | 2.55 | 
 | CNC(=O)c1cc(Cl)cc(C)c1NC(=O)c1cc(Cn2nnc3c(Cl)c(Cl)c(Cl)c(Cl)c32)nn1-c1ncccc1Cl [Example 84] | 100 | 4.19 | 
 | CNC(=O)c1cc(Cl)cc(C)c1NC(=O)c1cc(Cn2nc3c(Cl)c(Cl)c(Cl)c(Cl)c3n2)nn1-c1ncccc1Cl [Example 85] |  | 4.66 | 
 | CNC(=O)c1cc(C#N)cc(C)c1NC(=O)c1cc(Cn2nc3c(Cl)c(Cl)c(Cl)c(Cl)c3n2)nn1-c1ncccc1Cl [Example 93] |  | 4.24 | 
 | CNC(=O)c1cc(C#N)cc(C)c1NC(=O)c1cc(Cn2nnc3cc([N+](=O)[O-])ccc32)nn1-c1ncccc1Cl [Example 103] | 100 | 2.34 | 
 | Cc1cc(C#N)cc(C(=O)NC(C)(C)C)c1NC(=O)c1cc(Cn2nnc3c(Cl)c(Cl)c(Cl)c(Cl)c32)nn1-c1ncccc1Cl [Example 104] |  | 4.64 | 
 | Cc1cc(C#N)cc(C(=O)NC(C)(C)C)c1NC(=O)c1cc(Cn2nc3c(Cl)c(Cl)c(Cl)c(Cl)c3n2)nn1-c1ncccc1Cl [Example 105] |  | 5.13 | 
 | Cc1cc(C#N)cc(C(=O)NC(C)(C)C)c1NC(=O)c1cc(Cn2nnc3cc(Br)ccc32)nn1-c1ncccc1Cl [Example 106] | 100 | 3.31 | 
 | Cc1cc(C#N)cc(C(=O)NC(C)(C)C)c1NC(=O)c1cc(Cn2nnc3cc([N+](=O)[O-])ccc32)nn1-c1ncccc1Cl [Example 115] | 100 | 3.03 | 
 | Cc1cc(Cl)cc(C(=O)NC(C)C)c1NC(=O)c1cc(Cn2ccnn2)nn1-c1ncccc1Cl [Example 116] |  | 2.12 | 
 | Cc1cc(F)cc(C(=O)NC(C)(C)C)c1NC(=O)c1cc(Cn2ncc(C(F)(F)F)n2)nn1-c1ncccc1Cl [Example 171] | 100 | 4.02 | 
 | Cc1cc(Br)cc(C(=O)NC(C)C2CC2)c1NC(=O)c1cc(Cn2ncc(C(F)(F)F)n2)nn1-c1ncccc1Cl (centres unmarked) [Example 173] |  | 3.87 | 
 | Cc1cc(C#N)cc(C(=O)NC2CC2)c1NC(=O)c1cc(Cn2cc(C(F)(F)F)nn2)nn1-c1ncccc1Cl [Example 179] |  | 2.5 | 
 | Cc1cc(Cl)cc(C(=O)NC2CC2)c1NC(=O)c1cc(Cn2cc(C(F)(F)F)nn2)nn1-c1ncccc1Cl [Example 188] |  | 2.82 | 
 | Cc1cc(Cl)cc(C(=O)NC(C)(C)C)c1NC(=O)c1cc(Cn2cc(C(F)(F)F)nn2)nn1-c1ncccc1Cl [Example 191] | 100 | 3.44 | 
 | CCNC(=O)c1cc(C#N)cc(C)c1NC(=O)c1cc(Cn2cc(C(F)(F)C(F)(F)C(F)(F)F)nn2)nn1-c1ncccc1Cl [Example 330] |  |  | 3.24
